Consider 18 compounds from patent US20040180850A1, “Methods and compositions for treatment of gastric diseases” (priority 2001, published 2004).

For experiment [1], the system named is Helicobacter pylori. Nature of the experiment: TLC overlay assay of neoglycolipids (reductively aminated oligosaccharides). It counts as binding. From the text:
The Helicobacter pylori binding oligosaccharide sequence has been reported in the structure GlcNAcβ3Galβ4GlcNAcβ6GalNAc from human gastric mucins. […] Therefore the preferred oligosaccharide sequences include O-glycans and analogues of O-glycan sequences such as GlcNAcβ3Galβ4GlcNAcβ6GlcNAc/GalNAc/Gal, GleNAcβ3Galβ4GlcNAcβ6GlcNAc/GalNAc/GalαSer/Thr, GlcNAcβ3Galβ4GlcNAcβ6(Gal/GlcNAcβ3)GlcNAc/GalNAc/GalαSer/Thr and glycopeptides and glycopeptide analogs comprising the O-glycan sequences. Even sequences lacking the non-reducing end GlcNAc may have some activity. Based on this all the other Helicobacter pylori binding oligosaccharide sequences (OS) and especially the trisaccharide epitopes are also especially preferred when linked from the reducing end to form structures OSβ6Gal(NAc)0-1 or OSβ6Glc(NAc)0-1 or OSβ6Gal(NAc)0-1Ser/Thr or OSβ6Glc(NAc)0-1αSer/Thr. The Ser or Thr-compounds or analogue thereof or the reducing oligosaccharides are also preferred when linked to a polyvalent carrier. The reducing oligosaccharides can be reductively linked to the polyvalent carrier.
TLC bacterial overlay assay. Thin-layer chromatography was performed on glass- or aluminum-backed silica gel 60 HPTLC plates (Merck, Darmstadt, Germany) using chloroform/methanol/water 60:35:8 (by volume) as solvent system. Chemical detection was accomplished by anisaldehyde stainig (Waldi, 1962). The bacterial overlay assay was performed as described previously (Hansson et al., 1985). Glycosphingolipids (1-4 μg/lane, or as indicated in the figure legend) were chromatographed on aluminum-backed silica gel plates and thereafter treated with 0.3-0.5% polyisobutylmethaerylate in diethylether/n-hexane 1:3 (by volume) for 1 min, dried and subsequently soaked in PBS containing 2% bovine serum albumin and 0.1% Tween 20 for 2 h A suspension of radio-labeled bacteria (diluted in PBS to 1×10^8 CFU/ml and 1-5×10^6 cpm/ml) was sprinkled over the chromatograms and incubated for 2 h followed by repeated rinsings with PBS. After drying the chromatograms were exposed to XAR-5 X-ray films (Eastman Kodak Co., Rochester, N.Y., USA) for 12-100 h.
0.6 mg of pentasaccharide was obtained after HPLC-purcation steps, the saccharide was more than 98% pure when analyzed by mass spectrometry. Part of the pentasaccharide and maltoheptaose (Sigma, Saint Louis, USA) were reductively aminated with 4-hexadecylamnie (abbreviation HDA, from Aldrich, Stockholm, Sweden) by cyanoborohydride (Halina Miller-Podraza, to be published later). […]

For experiment [2], the system named is Helicobacter pylori (strain 032). Nature of the experiment: TLC bacterial overlay assay: binding of radiolabeled Helicobacter pylori to glycosphingolipids separated on thin-layer chromatograms. The following applies: for Helicobacter pylori binding activity of glycosphingolipid (in words): TLC overlay with 35S-labeled bacteria, autoradiography; for binding frequency for Helicobacter pylori: strain 032, total number of plates about 100.

Experiment [3] relates to Helicobacter pylori. Description: Semi-quantitative TLC overlay test with dilution series of glycosphingolipids. It counts as binding. The following applies: evaluated visually after overlay with labeled bacteria and autoradiography.

“Also recorded” adds a separate entry of the source.

Consider `CCCCCCCCCCCCCCCCc1ccc(NC[C@H](O)[C@@H](O)[C@H](O[C@@H]2O[C@H](CO)[C@H](O)[C@H](O[C@@H]3O[C@H](CO)[C@@H](O[C@@H]4O[C@H](CO)[C@H](O)[C@H](O[C@@H]5O[C@H](CO)[C@@H](O)[C@H](O)[C@H]5NC(C)=O)[C@H]4O)[C@H](O)[C@H]3NC(C)=O)[C@H]2O)[C@H](O)CO)cc1` [GlcNAcβ3Galβ4GlcNAcβ3Galβ4Glc(red)-HDA], for which the “binding activity of neoglycolipid with regard to Helicobacter pylori (in words)” value (from here on “binding activity of neoglycolipid”) in the experiment with Helicobacter pylori [1] is “observable binding activity”. On to `CC(=O)N[C@H]1[C@H](OC[C@H]2OC(O)[C@H](O)[C@@H](O)[C@H]2O)O[C@H](CO)[C@@H](O[C@@H]2O[C@H](CO)[C@H](O)[C@H](O[C@@H]3O[C@H](CO)[C@@H](O)[C@H](O)[C@H]3NC(C)=O)[C@H]2O)[C@@H]1O` (some centres unmarked) [GlcNAcβ3Galβ4GlcNAcβ6Gal], for which the “binding activity of neoglycolipid” value in the experiment with Helicobacter pylori [1] is reported as “some binding activity”. The same measure, in the same setting: the same measure for `CC(=O)N[C@H]1[C@H](OC[C@H]2OC(O)[C@H](NC(C)=O)[C@@H](O)[C@@H]2O)O[C@H](CO)[C@@H](O[C@@H]2O[C@H](CO)[C@H](O)[C@H](O[C@@H]3O[C@H](CO)[C@@H](O)[C@H](O)[C@H]3NC(C)=O)[C@H]2O)[C@@H]1O` (some centres unmarked) [GlcNAcβ3Galβ4GlcNAcβ6GlcNAc]: “high affinity binding”. Turning to “Fucα2Galβ4GlcNAcβ3Galβ4Glcβ1Cer [No. 18]”, the “Helicobacter pylori binding activity of glycosphingolipid (in words)” value (from here on “Helicobacter pylori binding activity”) in experiment [2] is recorded as “absence of binding”. For the compound “GalNAcα3(Fucα2)Galβ4GlcNAcβ3Galβ4Glcβ1Cer [No. 22]”, in experiment [2], the “Helicobacter pylori binding activity” value is “non-binding”.

Regarding “GalNAcβ3Galα3Galβ4GlcNAcβ3Galβ4Glcβ1Cer [No. 25]”, the “Helicobacter pylori binding activity” value in experiment [2] is listed as “non-binding”. On the same count and under the same terms, the value for “GalNAcβ3Galβ4GlcNAcβ3Galβ4Glcβ1Cer [No. 11]” was “binding was also found”; that for “Galα3(Fucα2)Galβ4GlcNAcβ3Galβ4Glcβ1Cer [No. 23]” was “non-binding”; that for “Galα3Galβ4GlcNAcβ3Galβ4Glcβ1Cer [No. 13]” was “binding-active”. Same read-out and setting: the same measure for “Galα4Galβ4GlcNAcβ3Galβ4Glcβ1Cer [No. 15]”: “absence of binding”. For “Galβ4GlcNAcβ3Galβ4GlcNAcβ3Galβ4Glcβ1Cer [No. 21]”, in experiment [2], the “Helicobacter pylori binding activity” value is listed as “displayed binding activity” and the “binding frequency for Helicobacter pylori” value is roughly 90%. Also, the “amount of glycolipid giving a positive response on TLC plates (binding of Helicobacter pylori)” value (shortened to “amount”) in the experiment on Helicobacter pylori [3] is given as roughly 0.2 nmol/spot. On to Galβ4GlcNAcβ3Galβ4Glcβ1Cer [No. 5], for which the “Helicobacter pylori binding activity” value in experiment [2] is listed as “displayed binding activity”. Also, in the experiment with Helicobacter pylori [3], the “amount” value was roughly 0.3 nmol/spot.

Regarding Galβ4Glcβ1Cer [diglycosylceramide], in experiment [2], the “Helicobacter pylori binding activity” value is given as “displayed binding activity”. Take “GlcNAcβ3Galβ4GlcNAcβ3Galβ4Glcβ1Cer [No. 10]”: the “Helicobacter pylori binding activity” value in experiment [2] (listed as pentaglycosylceramide) is “strong activity; also recorded: displayed binding activity”. For the same compound, the “binding frequency for Helicobacter pylori” value in experiment [2] is listed as roughly 90%. The “amount” value in the experiment with Helicobacter pylori [3] stood at 0.039 nmol/spot. Turning to GlcNAcβ3Galβ4Glcβ1Cer [No. 1], the “Helicobacter pylori binding activity” value in experiment [2] was “inactive”.

Take “NeuAcα3GalNAcβ3Galβ4GlcNAcβ3Galβ4Glcβ1Cer [No. 24]”: in experiment [2], the “Helicobacter pylori binding activity” value was “non-binding”. Turning to “NeuGcα3Galβ4GlcNAcβ3Galβ4GlcNAcβ3Galβ4Glcβ1Cer [No. 27]”, the “binding by Helicobacter pylori isolates” value in experiment [2] (about 60 isolates tested) is given as “bound by most Helicobacter pylori isolates”. Take “maltoheptaose(red)-HDA [maltoheptaose/red)-HDA, reference compound]”: the “binding activity of neoglycolipid” value in the experiment with Helicobacter pylori [1] was “totally inactive”.
